One block for each compound: values may come before it.
What was measured:
[1] = tested on: CYP1A2; design: method as in earlier work; settings: FDA Orange Books ref 65, 66; cited from earlier work
[2] = target: T1, ERα (Homo sapiens, UniProt P03372); settings: MST
T1 sequence (P03372 1-595): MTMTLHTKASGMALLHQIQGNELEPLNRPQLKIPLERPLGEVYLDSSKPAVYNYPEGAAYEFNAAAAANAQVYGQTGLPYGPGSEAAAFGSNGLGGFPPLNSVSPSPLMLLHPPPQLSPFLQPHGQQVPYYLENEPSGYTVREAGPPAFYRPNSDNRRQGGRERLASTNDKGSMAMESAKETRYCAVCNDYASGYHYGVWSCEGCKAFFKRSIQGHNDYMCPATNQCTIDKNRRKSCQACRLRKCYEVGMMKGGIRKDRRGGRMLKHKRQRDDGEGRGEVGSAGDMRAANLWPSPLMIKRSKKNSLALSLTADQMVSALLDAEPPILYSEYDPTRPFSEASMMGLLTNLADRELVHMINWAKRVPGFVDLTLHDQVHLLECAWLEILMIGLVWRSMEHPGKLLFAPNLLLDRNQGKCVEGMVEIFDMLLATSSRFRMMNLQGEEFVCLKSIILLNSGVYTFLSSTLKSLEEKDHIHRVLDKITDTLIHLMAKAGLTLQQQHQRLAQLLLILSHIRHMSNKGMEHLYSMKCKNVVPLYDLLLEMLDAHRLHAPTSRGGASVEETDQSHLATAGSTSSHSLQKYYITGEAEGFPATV

[3] = tested on: CYP2E1; design: method as in earlier work; settings: FDA Orange Books ref 65, 66; cited from earlier work
[4] = tested on: CYP2A6; design: method as in earlier work; settings: FDA Orange Books ref 65, 66; cited from earlier work

SMILES: Cc1ccc(Nc2nccc(N(C)c3ccc4c(C)n(C)nc4c3)n2)cc1S(N)(=O)=O [Pazopanib, pazopanib]
IC50 [1]: 16 µM

interaction with ERα at detectable levels [2]: did not interact
SMILES: CNC(=O)c1cc(Oc2ccc(NC(=O)Nc3ccc(Cl)c(C(F)(F)F)c3)cc2)ccn1 [Sorafenib, sorafenib]

SMILES: Cc1nc(Nc2ncc(C(=O)Nc3c(C)cccc3Cl)s2)cc(N2CCN(CCO)CC2)n1 [Dasatinib, dasatinib]
IC50 [3]: > 50 µM
IC50 [4]: 35 µM

Source: publication PMC9403029, “Identifying Novel Drug Targets by iDTPnd: A Case Study of Kinase Inhibitors” (Genomics, Proteomics & Bioinformatics, 2021)
